In patent publication US12447193B2, “Compositions and methods for prevention and treatment of infections” (The University of Memphis Research Foundation, priority 2019, dated 2025):

System: S. aureus (UAMS-1)
Experiment: Osteomyelitis model in New Zealand White rabbits
Assay type: in vivo
Details: rabbit radius defect, 3 weeks, H&E
Description: This animal model was approved by the IACUC at the University of Arkansas Medical Sciences with all appropriate measures taken to minimize pain and discomfort. This in vivo model is an adaptation of the work by Smeltzer et al J Orthop Res, 1997 15(3):414-21. Female New Zealand White rabbits weighing 2-3 kg were divided into 5 groups (n=6/group) including the following: no treatment control, a hollow PMMA (Orthoset, MicroPort Memphis, TN) cylinder with amikacin and vancomycin (approximately 15 mg/implant), a vancomycin sprinkle of 10 mg, the Ch-PEG paste, and the ChMPEG paste. Rabbits were anesthetized with 1-2 cc of a xylazine/ketamine mixture intramuscularly for a dose range of […] xylazine and 30-40 mg/kg ketamine. Rabbits were maintained on isoflurane administered by nose cone to produce surgical anesthesia and monitored by a veterinary technician. The right forelimb of each rabbit was shaved and prepped using a betadine scrub and rinsed with 70% ethanol. An incision was made on the anterior surface of the right forelimb through the epidermis, musculature, and fascia until the radius was exposed. A 1 cm mid-radial segment was excised from the right radial bone using a miniature saw blade (Exakt, Oklahoma City, OK). […]

With `CN[C@H](CC(C)C)C(=O)N[C@H]1C(=O)N[C@@H](CC(N)=O)C(=O)N[C@H]2C(=O)N[C@H]3C(=O)N[C@H](C(=O)N[C@H](C(=O)O)c4cc(O)cc(O)c4-c4cc3ccc4O)[C@H](O)c3ccc(c(Cl)c3)Oc3cc2cc(c3O[C@@H]2O[C@H](CO)[C@@H](O)[C@H](O)[C@H]2O[C@H]2C[C@](C)(N)[C@H](O)[C@H](C)O2)Oc2ccc(cc2Cl)[C@H]1O` [vancomycin powder, vancomycin] the “inflammation in histological sections of bone in the defect” value was “areas of high inflammatory cell presence” and the “tissue growth / fill in the defect (histology)” value was “tissue fill within the defect”.
